Reference: patent US20060069132A1, “Azolecarboxamide herbicides” (priority 2004, published 2006)

Assays:
bermudagrass = experiment: Test C pre-/postemergence herbicide test; assay type: in vivo, Cynodon dactylon
Method in brief: (§1)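 Preemergence: seeds planted and treated with compound in non-phytotoxic solvent with surfactant; postemergence: plants at 2 to 18 cm (1- to 4-leaf stage) sprayed likewise. Kept in greenhouse 12 to 14 days, then visually rated against controls, 0 (no effect) to 100 (complete control).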

large crabgrass = experiment: Test C pre-/postemergence herbicide test; assay type: in vivo, Digitaria sanguinalis
Method in brief: as §1

giant foxtail = experiment: Test C pre-/postemergence herbicide test; assay type: in vivo, Setaria faberi
Method in brief: as §1

lambsquarters = experiment: Test C pre-/postemergence herbicide test; assay type: in vivo, Chenopodium album
Method in brief: as §1

morningglory = experiment: Test C pre-/postemergence herbicide test; assay type: in vivo, Ipomoea coccinea; parameters: key to Plant response rating, Morningglory: 0 = no effect, 100 = complete control
Method in brief: as §1

common ragweed = experiment: Test C pre-/postemergence herbicide test; assay type: in vivo, Ambrosia elatior; parameters: key to Plant response rating, Ragweed: 0 = no effect, 100 = complete control
Method in brief: as §1

velvetleaf = experiment: Test C pre-/postemergence herbicide test; assay type: in vivo, Abutilon theophrasti
Method in brief: as §1

rice = experiment: Test C flooded paddy test; assay type: in vivo, Oryza sativa; conditions: for Plant response rating, Rice: 500 g ai/ha, visual rating after 12 to 14 days
Method in brief: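 Plants were grown to the 1- to 4-leaf stage (2–18 cm) and then treated postemergence, or grown to the 2-leaf stage for the flooded paddy test. They were held in a greenhouse for 12 to 14 days and then scored by eye against controls, where 0 is no effect and 100 is complete control.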

[1] = tested on: smallflower umbrella sedge; experiment: Test C flooded paddy test; assay type: in vivo, Cyperus difformis; conditions: for Plant response rating, Sedge, Umbrella: 500 g ai/ha, visual rating after 12 to 14 days
[2] = 62 g ai/ha, preemergence, scale 0 to 100, 0 no effect, 100 complete control
[3] = 125 g ai/ha, scale 0 (no effect) to 100 (complete control), visual, 12 to 14 days, preemergence
[4] = 250 g ai/ha, scale 0-100, preemergence
[5] = Postemergence, 500 g ai/ha, scale 0 to 100
[6] = Postemergence, 250 g ai/ha, scale 0 to 100, 0 no effect, 100 complete control
[7] = postemergence, 125 g ai/ha, scale 0 to 100
[8] = postemergence, 62 g ai/ha, scale 0 to 100
[9] = 62 g ai/ha, preemergence, scale 0 to 100
[10] = 500 g ai/ha, scale 0 to 100 (0 no effect, 100 complete control), visual, 12 to 14 days, preemergence
[11] = 125 g ai/ha, scale 0 to 100 (0 no effect, 100 complete control)
[12] = 250 g ai/ha, scale of 0 to 100, 0 is no effect, 100 is complete control
[13] = scale 0 to 100 (0 no effect, 100 complete control)

In the case of `CCn1nc(C(C)(C)C)cc1C(=O)Nc1cccc(OC(F)F)c1` [Compound 332], the “Plant response rating, Bermudagrass” value (bermudagrass; [2]) is reported as 80, the “Plant response rating, Bermudagrass” value (bermudagrass; [3]) is reported as 100 and the “Plant response rating, Bermudagrass” value (bermudagrass; [4]) is reported as 100. The “Bermudagrass plant response rating” value (bermudagrass; [5]) was 70, the “Plant response rating, Bermudagrass” value (bermudagrass; [6]) was 50 and the “Bermudagrass plant response rating” value (bermudagrass; Preemergence, 500 g ai/ha, scale 0 to 100, 0 no effect, 100 complete control) was 100. For the same molecule, the “Plant response rating, Bermudagrass” value (bermudagrass; [7]) was 10, the “Plant response rating, Bermudagrass” value (bermudagrass; [8]) was 5 and the “Plant response rating, Crabgrass, Large” value (large crabgrass; [9]) was 75. For the same molecule, the “Plant response rating, Crabgrass, Large” value (large crabgrass; [3]) was 100, the “Plant response rating, Crabgrass, Large” value (large crabgrass; [4]) was 100 and the “Plant response rating, Crabgrass, Large” value (large crabgrass; [10]) was 100. For the same molecule, the “Crabgrass, Large plant response rating” value (large crabgrass; [5]) was 70, the “Plant response rating, Crabgrass, Large” value (large crabgrass; [6]) was 50 and the “Plant response rating, Crabgrass, Large” value (large crabgrass; [8]) was 30. The “Plant response rating, Foxtail, Giant” value (giant foxtail; [9]) was 0, the “Plant response rating, Foxtail, Giant” value (giant foxtail; [3]) was 20 and the “Plant response rating, Foxtail, Giant” value (giant foxtail; [4]) was 60. For the same molecule, the “Plant response rating, Foxtail, Giant” value (giant foxtail; [10]) was 80, the “Foxtail, Giant plant response rating” value (giant foxtail; [5]) was 20 and the “Plant response rating, Foxtail, Giant” value (giant foxtail; [6]) was 15. For the same molecule, the “Plant response rating, Foxtail, Giant” value (giant foxtail; [7]) was 10, the “Plant response rating, Foxtail, Giant” value (giant foxtail; [8]) was 10 and the “Plant response rating, Lambsquarters” value (lambsquarters; [9]) was 100. The “Plant response rating, Lambsquarters” value (lambsquarters; [3]) was 100, the “Plant response rating, Lambsquarters” value (lambsquarters; [4]) was 100 and the “Plant response rating, Lambsquarters” value (lambsquarters; [10]) was 100. The “Lambsquarters plant response rating” value (lambsquarters; [5]) was 100, the “Plant response rating, Lambsquarters” value (lambsquarters; [6]) was 100 and the “Plant response rating, Lambsquarters” value (lambsquarters; [7]) was 65. The “Plant response rating, Lambsquarters” value (lambsquarters; [8]) was 50, the “Plant response rating, Morningglory” value (morningglory; [9]) was 0 and the “Plant response rating, Morningglory” value (morningglory; [3]) was 0. For the same molecule, the “Plant response rating, Morningglory” value (morningglory; [4]) was 0, the “Plant response rating, Morningglory” value (morningglory; [10]) was 0 and the “Plant response rating, Morningglory” value (morningglory; [6]) was 80. For the same molecule, the “Plant response rating, Morningglory” value (morningglory; [7]) was 10, the “Plant response rating, Morningglory” value (morningglory; [8]) was 5 and the “Plant response rating, Ragweed” value (common ragweed; [9]) was 0. The “Plant response rating, Ragweed” value (common ragweed; [4]) was 5, the “Plant response rating, Ragweed” value (common ragweed; [10]) was 70 and the “Ragweed plant response rating” value (common ragweed; [5]) was 60. For the same molecule, the “Plant response rating, Ragweed” value (common ragweed; [6]) was 40, the “Plant response rating, Ragweed” value (common ragweed; [7]) was 30 and the “Plant response rating, Ragweed” value (common ragweed; [8]) was 5. The “Plant response rating, Velvetleaf” value (velvetleaf; [9]) was 40, the “Plant response rating, Velvetleaf” value (velvetleaf; [4]) was 45 and the “Plant response rating, Velvetleaf” value (velvetleaf; [10]) was 70. For the same molecule, the “Velvetleaf plant response rating” value (velvetleaf; [5]) was 90, the “Plant response rating, Velvetleaf” value (velvetleaf; [6]) was 85 and the “Plant response rating, Velvetleaf” value (velvetleaf; [7]) was 60. For the same molecule, the “Plant response rating, Velvetleaf” value (velvetleaf; [8]) was 40, the “Rice plant response rating” value (rice; 62 g ai/ha, scale 0 to 100) was 0 and the “Rice plant response rating” value (rice; [11]) was 0. The “Rice plant response rating” value (rice; [12]) was 45, the “Plant response rating, Rice” value (rice; [13]) was 70 and the “Sedge, Umbrella plant response rating” value ([1]; 62 g ai/ha, scale 0 to 100) was 65. For the same molecule, the “Sedge, Umbrella plant response rating” value [1, 11] was 80, the “Sedge, Umbrella plant response rating” value [1, 12] was 85 and the “Plant response rating, Sedge, Umbrella” value [1, 13] was 85.
For `CCNC(=O)c1cccc(NC(=O)c2nn(C(C)(C)C)nc2C)c1` [Compound 392], the “Plant response rating, Bermudagrass” value (bermudagrass; [2]) was 90, the “Plant response rating (0 = no effect, 100 = complete control), Bermudagrass” value (bermudagrass; 125 g ai/ha, preemergence) was 90 and the “Plant response rating, Bermudagrass” value (bermudagrass; [4]) was 95. The “Plant response rating, Bermudagrass” value (bermudagrass; [10]) was 95, the “Plant response rating, Crabgrass, Large” value (large crabgrass; [9]) was 98 and the “Plant response rating (0 = no effect, 100 = complete control), Crabgrass, Large” value (large crabgrass; 125 g ai/ha, preemergence) was 100. For the same molecule, the “Plant response rating, Crabgrass, Large” value (large crabgrass; [4]) was 100, the “Plant response rating, Crabgrass, Large” value (large crabgrass; [10]) was 100 and the “Plant response rating, Foxtail, Giant” value (giant foxtail; [9]) was 65. For the same molecule, the “Plant response rating (0 = no effect, 100 = complete control), Foxtail, Giant” value (giant foxtail; 125 g ai/ha, preemergence) was 90, the “Plant response rating, Foxtail, Giant” value (giant foxtail; [4]) was 100 and the “Plant response rating, Foxtail, Giant” value (giant foxtail; [10]) was 100. The “Plant response rating, Lambsquarters” value (lambsquarters; [9]) was 100, the “Plant response rating (0 = no effect, 100 = complete control), Lambsquarters” value (lambsquarters; 125 g ai/ha, preemergence) was 100 and the “Plant response rating, Lambsquarters” value (lambsquarters; [4]) was 100. For the same molecule, the “Plant response rating, Lambsquarters” value (lambsquarters; [10]) was 100, the “Plant response rating, Morningglory” value (morningglory; [9]) was 70 and the “Plant response rating (0 = no effect, 100 = complete control), Morningglory” value (morningglory; 125 g ai/ha, preemergence) was 95. The “Plant response rating, Morningglory” value (morningglory; [4]) was 100, the “Plant response rating, Morningglory” value (morningglory; [10]) was 100 and the “Plant response rating, Ragweed” value (common ragweed; [9]) was 60. For the same molecule, the “Plant response rating (0 = no effect, 100 = complete control), Ragweed” value (common ragweed; 125 g ai/ha, preemergence) was 100, the “Plant response rating, Ragweed” value (common ragweed; [4]) was 100 and the “Plant response rating, Ragweed” value (common ragweed; [10]) was 100. For the same molecule, the “Plant response rating, Velvetleaf” value (velvetleaf; [9]) was 70, the “Plant response rating (0 = no effect, 100 = complete control), Velvetleaf” value (velvetleaf; 125 g ai/ha, preemergence) was 100 and the “Plant response rating, Velvetleaf” value (velvetleaf; [4]) was 100. The “Plant response rating, Velvetleaf” value (velvetleaf; [10]) was 100, the “Rice plant response rating” value (rice; 62 g ai/ha, scale 0 to 100) was 50 and the “Rice plant response rating” value (rice; [11]) was 60. For the same molecule, the “Rice plant response rating” value (rice; [12]) was 75, the “Plant response rating, Rice” value (rice; [13]) was 75 and the “Sedge, Umbrella plant response rating” value ([1]; 62 g ai/ha, scale 0 to 100) was 70. The “Sedge, Umbrella plant response rating” value [1, 11] was 75, the “Sedge, Umbrella plant response rating” value [1, 12] was 85 and the “Plant response rating, Sedge, Umbrella” value [1, 13] was 85.
